This note sets out measurements from ChEMBL document CHEMBL1201862, “PubChem BioAssay data set” (2004).

The target of assay [1] is Genome polyprotein (dengue virus type 2, UniProt P29990). The assay can be described thus: flavivirus cap methylation enzyme inhibition – biochemical, confirmation dose response, primary screen (AID 588689). The class given is functional.
Assay [2] concerns the target Heat shock protein HSP 90-alpha (Homo sapiens, UniProt P07900). The class given is functional, organism-based.
Assay [3] deals with T1, High affinity choline transporter 1 (Homo sapiens, UniProt Q9GZV3).
T1 sequence (Q9GZV3 whole entry): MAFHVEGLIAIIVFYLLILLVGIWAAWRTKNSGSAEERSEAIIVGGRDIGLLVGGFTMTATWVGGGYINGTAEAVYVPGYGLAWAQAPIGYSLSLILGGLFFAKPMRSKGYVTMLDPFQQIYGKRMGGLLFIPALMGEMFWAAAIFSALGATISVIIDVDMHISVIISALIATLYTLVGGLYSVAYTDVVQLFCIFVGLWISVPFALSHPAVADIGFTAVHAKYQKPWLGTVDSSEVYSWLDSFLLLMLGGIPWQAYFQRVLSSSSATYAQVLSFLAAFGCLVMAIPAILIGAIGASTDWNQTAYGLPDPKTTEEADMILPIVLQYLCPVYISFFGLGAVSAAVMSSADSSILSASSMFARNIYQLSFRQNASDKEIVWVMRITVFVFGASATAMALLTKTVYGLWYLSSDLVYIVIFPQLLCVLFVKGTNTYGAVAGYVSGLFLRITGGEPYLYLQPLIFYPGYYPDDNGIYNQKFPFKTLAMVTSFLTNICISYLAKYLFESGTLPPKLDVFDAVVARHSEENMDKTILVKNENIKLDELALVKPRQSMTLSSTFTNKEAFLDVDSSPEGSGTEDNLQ
The experiment in a line: human choline transporter blockers, potency – cell-based, 5-point CRC, membrane potential dye, dose response (AID 504840). Format: functional.

Assay [4] can be described thus: viability of PTEN-deleted HCT116 cells – cell-based, HCT116 PTEN knockout, dose response (AID 1047).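 Note: HCT116 colon tumor cells with PTEN knocked out; cells exposed to compound for 60 hours before readout; potency for loss of cell viability measured by luminescence.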 Format: functional.
Assay [5] is described as follows: viability of HCT116 lacking mutant beta-catenin – cell-based, human colon tumor, dose response (AID 1045).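 Note: HCT116 colon tumor cells with beta catenin knocked out; cells exposed to compound for 60 hours.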 The class given is functional.
The target of assay [6] is Glyceraldehyde-3-phosphate dehydrogenase (Homo sapiens, UniProt P04406).
Chain of Glyceraldehyde-3-phosphate dehydrogenase (P04406 whole entry): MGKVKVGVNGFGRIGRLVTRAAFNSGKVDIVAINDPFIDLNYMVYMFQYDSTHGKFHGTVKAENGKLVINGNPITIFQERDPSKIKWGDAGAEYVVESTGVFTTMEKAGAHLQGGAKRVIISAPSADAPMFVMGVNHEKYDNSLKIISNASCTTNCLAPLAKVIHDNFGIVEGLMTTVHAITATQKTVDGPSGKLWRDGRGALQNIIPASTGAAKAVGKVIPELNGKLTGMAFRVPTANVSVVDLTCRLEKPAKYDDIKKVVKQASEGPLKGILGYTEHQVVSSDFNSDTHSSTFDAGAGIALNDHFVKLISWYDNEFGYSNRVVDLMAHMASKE
For assay [7], the system named is P388. The experiment in a line: cells. The class given is functional. The note with it: Mus musculus.
Assay [8] concerns SN12K1. The assay can be described thus: cells. Format: functional. The note with it: Homo sapiens.
Assay [9] concerns P388/ADR. The experiment in a line: cells. Format: functional. The note with it: Mus musculus.
In assay [10] the target is T2, Protein skinhead-1 (Caenorhabditis elegans, UniProt P34707).
T2 sequence (P34707 whole entry): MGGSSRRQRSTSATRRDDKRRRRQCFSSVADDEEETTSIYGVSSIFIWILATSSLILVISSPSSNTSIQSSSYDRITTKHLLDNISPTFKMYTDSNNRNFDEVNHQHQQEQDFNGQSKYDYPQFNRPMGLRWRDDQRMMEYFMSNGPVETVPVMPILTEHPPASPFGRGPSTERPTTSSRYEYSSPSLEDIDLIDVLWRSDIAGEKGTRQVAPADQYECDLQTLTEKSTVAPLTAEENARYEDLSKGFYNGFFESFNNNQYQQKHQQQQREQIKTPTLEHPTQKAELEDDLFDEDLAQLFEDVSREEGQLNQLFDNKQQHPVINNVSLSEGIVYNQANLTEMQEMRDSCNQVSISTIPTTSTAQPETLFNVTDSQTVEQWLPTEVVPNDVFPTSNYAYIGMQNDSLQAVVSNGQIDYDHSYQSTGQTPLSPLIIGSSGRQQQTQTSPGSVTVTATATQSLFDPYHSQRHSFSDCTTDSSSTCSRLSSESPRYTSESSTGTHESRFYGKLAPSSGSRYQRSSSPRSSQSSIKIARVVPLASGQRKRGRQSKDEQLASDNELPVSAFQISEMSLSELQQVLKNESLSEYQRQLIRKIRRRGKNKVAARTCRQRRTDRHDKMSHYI
The class given is functional.

Assay [11] is described as follows: Luminescence Cell-Based Dose Confirmation HTS to Identify Inhibitors of Platelet Dense Granule Release. [Related pubchem assays: 1663 (Primary HTS), 1678 (Summary of Project)]. The class given is functional.
In assay [12] the target is Luciferin 4-monooxygenase (Photinus pyralis, UniProt P08659). The experiment in a line: inhibition of purified Photinus pyralis luciferase – biochemical, luminescence, dose response (AID 1891).
Chain of Luciferin 4-monooxygenase (P08659 whole entry): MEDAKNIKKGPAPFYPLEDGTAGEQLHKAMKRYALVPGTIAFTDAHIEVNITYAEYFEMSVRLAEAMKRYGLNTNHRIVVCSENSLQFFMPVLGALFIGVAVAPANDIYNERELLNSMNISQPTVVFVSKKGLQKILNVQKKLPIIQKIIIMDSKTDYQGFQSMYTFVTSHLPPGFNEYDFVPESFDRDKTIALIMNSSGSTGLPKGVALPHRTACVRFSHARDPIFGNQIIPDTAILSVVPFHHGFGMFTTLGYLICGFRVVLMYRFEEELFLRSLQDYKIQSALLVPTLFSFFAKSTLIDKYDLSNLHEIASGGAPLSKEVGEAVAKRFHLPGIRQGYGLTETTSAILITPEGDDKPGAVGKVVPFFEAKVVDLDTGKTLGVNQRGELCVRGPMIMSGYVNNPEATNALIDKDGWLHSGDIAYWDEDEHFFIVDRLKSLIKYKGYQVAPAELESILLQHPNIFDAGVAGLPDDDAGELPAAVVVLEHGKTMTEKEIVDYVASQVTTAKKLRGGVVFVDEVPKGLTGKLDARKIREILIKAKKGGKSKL
Assay [13] deals with Streptococcus sp. 'group A'. The assay can be described thus: Streptococcus pyogenes SK(-)GAS viability under kanamycin – luminescence, BacTiterGlo, confirmation, counter-screen for streptokinase expression inhibitor project, dose response (AID 1900). The class given is functional, organism-based. A general note: A counterscreen serves to expose hits that act by an unwanted route or on another target.

In assay [14] the target is T3, Streptokinase A (Streptococcus pyogenes serotype M1, UniProt P10520).
T3 sequence (P10520 whole entry): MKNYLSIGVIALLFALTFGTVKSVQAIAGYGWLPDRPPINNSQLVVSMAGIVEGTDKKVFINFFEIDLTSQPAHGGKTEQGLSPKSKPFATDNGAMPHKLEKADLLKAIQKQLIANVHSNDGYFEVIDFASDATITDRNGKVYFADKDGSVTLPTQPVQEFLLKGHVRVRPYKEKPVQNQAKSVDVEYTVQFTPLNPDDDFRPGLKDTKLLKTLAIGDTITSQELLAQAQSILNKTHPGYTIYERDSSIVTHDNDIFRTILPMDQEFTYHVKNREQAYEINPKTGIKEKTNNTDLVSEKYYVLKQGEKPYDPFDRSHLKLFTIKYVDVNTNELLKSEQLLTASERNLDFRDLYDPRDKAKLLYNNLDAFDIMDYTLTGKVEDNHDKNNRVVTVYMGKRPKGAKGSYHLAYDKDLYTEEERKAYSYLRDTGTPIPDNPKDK
The assay can be described thus: viability-normalized secreted streptokinase activity reduction – plasminogen activation absorbance, OD405, dose response (AID 1914).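 Note: secreted streptokinase activity via plasminogen activation per viability signal from cell pellet.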 The class given is functional, Streptococcus pyogenes M1 GAS.

Assay [15] in a line: NIH3T3 cell viability loss – ATP luminescence, mouse fibroblasts, counter-screen, dose response (AID 2010).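 Note: cells exposed to compound for about 90 hours before reading.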 The class given is functional, cell-based.
Assay [16] relates to Streptococcus. The experiment in a line: GAS UMAA2166 growth inhibition – luminescence, BacTiterGlo, counter-screen for streptokinase expression inhibitor project, dose response (AID 1915).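 Note: potency for reduction of bacterial viability or growth.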 Format: functional, organism-based.
The target of assay [17] is Nonstructural protein 1 (Influenza A virus, UniProt Q194T2). Format: functional, Influenza A virus (A/California/07/2009(H1N1)).
Chain of Nonstructural protein 1 (Q194T2 whole entry): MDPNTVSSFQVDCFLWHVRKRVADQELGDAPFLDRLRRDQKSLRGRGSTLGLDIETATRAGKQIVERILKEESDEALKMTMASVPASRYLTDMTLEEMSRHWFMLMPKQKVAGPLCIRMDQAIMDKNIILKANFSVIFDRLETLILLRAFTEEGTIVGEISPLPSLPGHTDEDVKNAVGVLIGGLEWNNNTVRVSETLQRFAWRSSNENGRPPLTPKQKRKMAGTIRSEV
Assay [18] can be described thus: Trypanosoma cruzi growth suppression in host cells – NIH3T3 host cells, beta-gal luminescence, confirmation (AID 2044).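 Note: intracellular parasites grown in NIH/3T3 mouse fibroblasts as host cells; luminescent beta-galactosidase reporter signal from transgenic T. cruzi replicating inside host cells; inhibitors lower the luminescence signal.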 Format: functional, cell-based.
For assay [19], the target named is DNA dC->dU-editing enzyme APOBEC-3G (Homo sapiens, UniProt Q9HC16). The experiment in a line: Dose Response confirmation of small molecule APOBEC3G DNA Deaminase Inhibitors via a fluorescence-based single-stranded DNA deaminase assay. [Related pubchem assays (depositor defined):AID493012, AID493028]. Format: functional.
Chain of DNA dC->dU-editing enzyme APOBEC-3G (Q9HC16 whole entry): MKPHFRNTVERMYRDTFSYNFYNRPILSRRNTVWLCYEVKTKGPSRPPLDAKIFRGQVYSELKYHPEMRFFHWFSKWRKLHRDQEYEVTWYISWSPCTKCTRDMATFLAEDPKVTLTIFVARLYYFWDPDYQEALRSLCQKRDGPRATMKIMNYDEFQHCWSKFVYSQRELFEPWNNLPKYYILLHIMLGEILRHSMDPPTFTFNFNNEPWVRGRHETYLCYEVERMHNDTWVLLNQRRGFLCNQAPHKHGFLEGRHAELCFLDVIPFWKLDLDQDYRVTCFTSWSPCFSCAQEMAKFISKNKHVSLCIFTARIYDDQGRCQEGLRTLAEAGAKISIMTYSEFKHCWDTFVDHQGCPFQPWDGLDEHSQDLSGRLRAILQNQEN
A short description of assay [20]: cells. Format: functional.
Assay [21] addresses T4, DNA repair protein RAD52 homolog (Homo sapiens, UniProt P43351).
T4 sequence (P43351 whole entry): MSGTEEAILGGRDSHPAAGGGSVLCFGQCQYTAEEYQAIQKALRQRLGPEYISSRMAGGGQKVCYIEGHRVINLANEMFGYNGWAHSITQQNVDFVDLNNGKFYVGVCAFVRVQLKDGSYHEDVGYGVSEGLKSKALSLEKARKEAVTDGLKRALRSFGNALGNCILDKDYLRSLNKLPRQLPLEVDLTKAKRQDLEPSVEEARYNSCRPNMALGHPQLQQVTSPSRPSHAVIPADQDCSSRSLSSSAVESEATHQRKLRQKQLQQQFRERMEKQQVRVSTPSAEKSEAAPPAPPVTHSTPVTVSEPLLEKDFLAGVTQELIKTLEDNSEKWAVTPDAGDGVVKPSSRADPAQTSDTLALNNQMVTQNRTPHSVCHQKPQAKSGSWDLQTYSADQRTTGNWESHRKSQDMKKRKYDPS
Format: functional, biochemical.

The nature of assay [22]: THP-1 cell cytotoxicity, dose response, cytotoxicity control for non-replicating M. tuberculosis project (AID 489025). The class given is functional.

What is called IC50 is the point on the concentration scale where inhibition reaches its midpoint. Broadly, the AC50 is the concentration at which the activity in the assay is half-maximal. A word on the EC50: it is the concentration that produces a half-maximal response. For orientation: GI50 means the concentration at which growth is held to half of that of the control. Broadly, the CC50 is the concentration at which the toxic effect on the cells reaches its halfway point.

Each structure is given as a SMILES string. Calls of active or inactive are those of the source.

Chain of Genome polyprotein (P29990 2492-3391 limits assumed): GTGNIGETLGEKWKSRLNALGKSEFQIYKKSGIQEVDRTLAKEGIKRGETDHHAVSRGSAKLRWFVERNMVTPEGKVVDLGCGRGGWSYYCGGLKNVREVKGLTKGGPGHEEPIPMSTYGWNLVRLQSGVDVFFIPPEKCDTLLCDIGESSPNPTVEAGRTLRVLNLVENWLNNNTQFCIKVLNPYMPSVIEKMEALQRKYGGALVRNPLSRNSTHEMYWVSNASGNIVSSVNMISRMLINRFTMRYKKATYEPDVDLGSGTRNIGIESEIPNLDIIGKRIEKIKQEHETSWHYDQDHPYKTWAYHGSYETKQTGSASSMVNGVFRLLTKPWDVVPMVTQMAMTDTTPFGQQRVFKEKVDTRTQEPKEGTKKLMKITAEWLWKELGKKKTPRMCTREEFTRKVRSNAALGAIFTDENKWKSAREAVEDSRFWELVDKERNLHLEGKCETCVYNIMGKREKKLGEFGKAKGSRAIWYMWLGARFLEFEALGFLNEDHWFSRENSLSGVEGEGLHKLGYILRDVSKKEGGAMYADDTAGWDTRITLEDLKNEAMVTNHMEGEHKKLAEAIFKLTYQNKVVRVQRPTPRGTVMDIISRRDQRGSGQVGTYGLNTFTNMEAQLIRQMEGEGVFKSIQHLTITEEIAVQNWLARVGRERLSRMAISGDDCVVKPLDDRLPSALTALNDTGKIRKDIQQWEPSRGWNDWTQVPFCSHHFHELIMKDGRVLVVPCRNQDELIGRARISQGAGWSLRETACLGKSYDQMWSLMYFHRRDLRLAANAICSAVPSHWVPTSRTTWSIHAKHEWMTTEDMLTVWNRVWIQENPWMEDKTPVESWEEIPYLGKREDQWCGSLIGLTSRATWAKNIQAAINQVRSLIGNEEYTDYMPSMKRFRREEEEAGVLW

For the molecule `O=C(O)c1cccc(NS(=O)(=O)c2ccc(-c3ccc(S(=O)(=O)Nc4cccc(C(=O)O)c4)cc3)cc2)c1`, in assay [1], the IC50 is 49.5 µM (active).

Take `O=C(c1ccc(-c2ccccc2)cc1)C1CCCN(C(=O)c2cncs2)C1` (centres undefined): the AC50 in [2] was 4.29 µM (active).

Take `COc1ccc(-n2c(C)cc(C(=O)CSc3nnc(-c4ccoc4C)n3C)c2C)cc1`: the IC50 in assay [3] was 13.8 µM (active).

`COc1ccc2nc(Nc3nc4ccc(NC(C)=O)cc4s3)sc2c1`: the EC50 is 16.9 µM (active) in assay [4] and 14 µM (active) in [5].

Turning to `CN1C(=O)NC(=O)/C(=C/c2ccc(C(=O)O)cc2)C1=O`, in assay [1], the IC50 was 85.1 µM (active).

For the molecule `O=C(O)C1Nc2ccccc2S(=O)(=O)N1` (centres undefined), the IC50 in [6] is > 100 µM (not active).

In the case of `COc1ccc(-n2cc(-c3ccccc3)c3c(N4CCN(CCO)CC4)ncnc32)cc1`, the EC50 in assay [4] is 32.8 µM (active); in assay [5], 30.3 µM (active).

As for `COc1ccc2c(c1)-c1nn(CCCN(C)C)c3ccc([N+](=O)[O-])c(c13)N2`, the GI50 was 0.163 µM (active) in assay [7], 0.119 µM (active) in assay [8] and 0.281 µM (active) in assay [9].

Regarding `O=C(/C=C/Nc1ccc(Oc2ccccc2)cc1)c1ccco1`, the IC50 in [10] was > 100 µM (inactive). The results for the half-maximal effective concentration (EC50) in assay [11] and in [12] were 1.64 µM (active) and 0.617 µM (active), respectively.

Consider `Cn1cccc1C(=O)Nc1nc(-c2ccccn2)cs1`, for which the EC50 in [13] was 18.4 µM (active); in assay [14], > 150 µM (not active); in assay [15] it was 4.47 µM (active); in assay [16], 58.3 µM (active); in assay [18], 2.28 µM (active). Moreover, in assay [17], the IC50 is 11 µM (active).

In the case of `Fc1ccccc1Nc1nc2ccccc2o1`, the EC50 in assay [11] was 4.57 µM (active); in assay [12] it was 0.83 µM (active).

As to `COc1ccc2oc(/C=C/N(C)C)c(C(=O)c3ccc(Cl)cc3)c2c1`, the AC50 in assay [2] was 3.8 µM (active).

Turning to `CCOC(=O)C1CCN(Cc2c(O)oc3ccccc3c2=O)CC1`, the IC50 in assay [3] is 6.91 µM (active).

Take `Cn1c(-c2cc(Br)ccc2O)n[nH]c1=S`: the EC50 in assay [14] was > 150 µM (not active). For the same molecule, the IC50 in [19] was 8.33 µM (active).

Turning to `CCCCn1c(SCn2nnc3ccccc3c2=O)nc2cc(S(N)(=O)=O)ccc21`, in assay [3], the IC50 was 15.8 µM (active).

As for `O=C(CN1CCCCC1)N1CCCc2c1c(=O)oc1ccc(OCc3ccccc3)cc21`, the values for the EC50 in [4] and in [5] were 39.9 µM (active) and 48.4 µM (active), respectively.

On to `CN(C)CC/C=C1/c2ccc(F)cc2Sc2ccc(Cl)cc21`, for which the IC50 in assay [20] was 18.6 µM (active). In assay [21], the AC50 is 12.8 µM (active). Moreover, the CC50 in assay [22] was 18.9 µM (active).

Turning to `c1ccc(-c2cnnc(-c3ccccn3)n2)cc1`, the IC50 in assay [17] was 12.9 µM (active).

Turning to `O=S(=O)(c1ccc(Br)cc1)c1nc(-c2ccccc2)oc1NCCN1CCOCC1`, the IC50 in assay [17] was > 100 µM (active).

As to `COc1ccc2c(c1)OCCc1cn[nH]c1-2`, the GI50 was 32.5 µM (inactive) in [7], 38.2 µM (inactive) in assay [8] and 34 µM (inactive) in assay [9].

With `COC(=O)/C=c1/sc2nc3ccccc3n2c1=O`, in [19], the IC50 is 30.8 µM (active).

For the molecule `C/C(=C/C(=O)Nc1ccccc1)Nc1onc(C)c1C`, the GI50 in [7] and in assay [8] was > 100 µM (inactive) throughout.

Turning to `COc1ccc(/C(Cl)=C(\C=O)c2ccc(OC)c(OC)c2)cc1OC`, the GI50 in assay [7] was 35.3 µM (inactive); in [8], 80.9 µM (inactive); in assay [9], 10.5 µM (inactive).

As for `CSc1nc2c(ncn2C2OC(CO)C(O)C(O)C2O)c(=O)[nH]1` (centres undefined), the figures for the GI50 in assay [7], in [8] and in assay [9] were > 100 µM (inactive), > 100 µM (inactive) and > 10 µM (inactive), respectively.

`O=C[C@@H](CO)O[C@H](C=O)n1cnc2c(=O)nc[nH]c21`: the figures for the GI50 in assay [7], in [8] and in assay [9] were 76 µM (inactive), 284 µM (inactive) and 69.2 µM (inactive), respectively.

Regarding `COc1cccc(N[C@@H]2c3cc4c(cc3C(c3cc(OC)c(O)c(OC)c3)[C@H]3C(=O)OCC32)OCO4)c1` (some centres undefined), the GI50 in assay [7] is < 0.01 µM (active); in assay [8], 0.0615 µM (active); in [9], 0.0635 µM (active).

`C=CCOc1ccccc1/C=c1\sc2nc(=O)c(C)nn2c1=O`: the IC50 in [1] was 12.1 µM (active).
